# Patent publication US12466821B2 (Novartis AG, priority 2018, dated 2025)
# Where two headings read alike, the source gives them in different places.
# How the values were obtained:
# Assay type in all cases: cell-based
# [1] = test system: VZV Ellen strain; test: VZV qPCR assay (cellular herpesvirus replication); details: Human alphaherpesvirus 3, MRC5, 48 h; MRC-5 cells, qPCR after two days; n>3, value (+/- spread)
# Method: (§1) For all viral assays, 10 mM DMSO stock compound solutions were serially diluted in DMSO at 3.16 fold dilutions in 96-well clear round bottom plates. Compounds were then diluted in assay media at 1:20 and subsequently 10 μL of these dilutions were added to cells for final compound concentrations ranging either from 0.0159 μM to 50 μM in 0.5% DMSO/assay media, or from 0.00318 to 10 μM in 0.5% DMSO/assay media.
# VZV qPCR assay: The assay uses co-infection with VZV Ellen strain-infected MRC-5 cells (ATCC cat #VR-1367). Viral replication in the presence or absence of compounds was measured by qPCR according to the following procedure: 12,000 uninfected MRC-5 cells were mixed with VZV-infected MRC-5 cells at a ratio of 1 to 10 infected to uninfected cells, in 96-well white-wall clear bottom plates in 90 μL/well of assay media: 4% FBS in EMEM (ATCC cat #30-2003). […] The chosen ratio of infected to uninfected cells gave approximately 3% VZV-positive cells at 6 hours post co-culturing, as detected by immunofluorescent staining of VZV Immediate Early 62 gene. […]
# qPCR reactions were carried out in a total reaction volume of 20 μL, using the QuantiFast® Multiplex PCR kit (Qiagen cat #204656). […]
# (§2) Relative quantification was calculated with the ΔΔCT Method, and then converted into percent inhibitions. […] EC50 values were calculated using XLFit Dose Response One Site Model 205.
# [2] = test system: Luciferase-encoding HCMV, AD169 strain; test: CMV Luciferase assay (cellular herpesvirus replication)
# Outline: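 Neonatal human dermal fibroblasts were pretreated 1 h with compound (final 0.0159–50 μM or 0.00318–10 μM, 0.5% DMSO), then infected at MOI 1 with AD169 carrying pp28-promoter luciferase. After 72 h at 37 °C, Renilla-Glo luminescence normalized to no-virus and virus-only controls; EC50 by 4-parameter logistic model.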
# [3] = test system: KOS strain of HSV-1 virus; test: HSV-1 qPCR assay (cellular herpesvirus replication); details: Human alphaherpesvirus 1; NN-NHDF cells, qPCR after 24 hrs; n>3, value (+/- spread)
# Method: as §1
# HSV-1 qPCR assay: The assay uses KOS strain of HSV-1 virus (ATCC cat #VR-1493). Viral replication in the presence or absence of compounds was measured by qPCR according to the following procedure: NN-NHDF cells were plated at 9,000 cells/well in 96-well white-wall clear bottom plates in 80 μL/well of assay media (same as CMV) and left at room temperature in laminar flow hood for 20 mins followed by incubation at 37° C. […]
# qPCR reactions were carried out in a total reaction volume of 20 μL, using the QuantiFast® Multiplex PCR kit (Qiagen cat #204656). Eighteen μL of qPCR master mix (10 μL of 2× QuantiFast® Multiplex PCR Master Mix, 1 μL of 20× Primer/Probe Mix specific to housekeeping gene, 1 μL of 20× Primer/Probe Mix specific to viral gene, 6 μL of H2O) was distributed into each well of a 384 well plate. […]
# as §2
structure (smiles),measurement,setting,value
"N#Cc1ccc(CNC(=O)c2ccc3n(c2=O)CCN(CC2(S(=O)(=O)C4CC4)CC2)C3=O)cc1 [Example 1, N-(4-cyanobenzyl)-2-((1-(cyclopropylsulfonyl)cyclopropyl)methyl)-1,6-dioxo-2,3,4,6-tetrahydro-1H-pyrido[1,2-a]pyrazine-7-carboxamide]",EC50,[1],0.02 µM
same,EC50,"[2]; Human betaherpesvirus 5, AD169, read-out: CMV-Luc Cellular EC50",0.0232 µM
same,EC50,"[2]; Human betaherpesvirus 5, AD169, read-out: EC50 Human herpesvirus CMV",0.024 µM
same,EC50,[3],0.032 µM
